The source of these data is patent US20160113931A1, “Method of treating and/or preventing neurodegenerative diseases” (University of Macau, priority 2014, published 2016).

Type in all cases: cell-based, rat
The test system of test [1] is cerebellar tissue slices. Put plainly: MPP+-induced cell death in cerebellar tissue slice culture (PI and NeuN staining). The settings on record: 30 μM, MPP+ 3 days. How it is done:
Cerebellar tissue slice were treated with 30 μM BHDPC with or without MPP^+ for 72 h and then were stained with PI.
Following decapitation, brains of post-natal Day 9-10 SD rat were dissected out and sagittal slices (300 μm) of the cerebellum were immediately cut using a McIlwain tissue chopper, the slices were then isolated in Eagle's medium with Earle's salts medium (MEM) on ice and then placed on Millipore Millicell-CM™ organotypic culture inserts in pre-warmed medium containing MEM, Earle's balanced salt solution, heat-inactivated horse serum, GlutaMAX™, Fungizone®, and penicillin-streptomycin (each from Invitrogen), and glucose (Sigma). […]
After 3-4 days treatment of MPP^+ together with BHDPC, slices were fixed with 4% paraformaldehyde and then stained by immunohistochemistry. […] Three to four separate slice isolations (about 4-5 pups/isolation) were used, with 3-5 slices analysed from each isolation for each factor and dose.
Slices were fixed with 4% paraformaldehyde at room temperature for 1 hour, blocked with 5% donkey serum, 0.3% Triton™ X-100, and then incubated in primary antibodies for 2 days at 4° C. […] Confocal z-stacks were acquired (at 1.3 μm intervals and 10-15 images were acquired per stack) with a Leica SPE confocal microscope and images analysed using NIH ImageJ. […]

The subject of test [2] is primary cortical neurons. Put plainly: α-tubulin and MAP2 expression in primary cortical neurons. Conditions: 10 and 30 μM, 14 days. The protocol:
Primary culture of cortical neurons was prepared from embryonic day 18±0.5 Sprague-Dawley rats. One day after seeding, primary cortical neurons were treated with 10 and 30 μM BHDPC for 14 days. Fourteen days following BHDPC treatment, primary cortical neurons cultured on glass coverslips (Thermo Scientific) were fixed with 4% paraformaldehyde for 15 min. Following fixation, neurons were permeabilized with 0.1% Triton X-100 in Tris-buffered saline for 7 min, and blocked with 4% bovine serum albumin and 2% goat serum for 1 h. α-tubulin and MAP2 were incubated at 1:400 dilution for 1 h at room temperature and overnight at 4° C. respectively. Following primary antibody incubation, neurons were incubated with Alexa Flour 488 or 568 secondary antibodies (anti-rabbit or anti-mouse) at 1:400 dilution for 1 h at room temperature. The coverslips were then mounted on microscopic slides (Thermo Scientific) using ProLong® Gold Antifade Mountant (Molecular Probes). Neurons were imaged using the LSM 780 laser scanning microscope (Carl Zeiss). Fluorescence intensity was measured using Image J.

The test system of test [3] is oligodendroglial progenitor cells (OPCs). In words: LPS-induced OPC death (MTT assay). The settings on record: 30 μM BHDPC 2 h, LPS 24 h. How it is done: OPCs were incubated with 30 μM BHDPC or 0.1% DMSO (vehicle control) for 2 h followed by the addition or not of 200 μM H2O2 for a further 6 h (FIG. 11A) or LPS (FIG. 11B) for 24 h.
The percentage of surviving cells was estimated by determining the activity of mitochondrial dehydrogenases with 3(4,5-dimethylthiazol-2-yl)-2,5-diphenyltetrazolium bromide (MTT) assay. After drug treatment, cells were incubated at 37° C. for 4 h in 0.5 mg/mL MTT solution. The medium was then removed, and 100 μL of DMSO was added to each well to dissolve the violet formazan crystals. The absorbance of the samples was measured at a wavelength of 570 nm with 655 nm as a reference wavelength. All values were normalized to the control groups.
Purified OPC cultures were prepared as described. In brief, primary rat mixed glial cell cultures were isolated from whole brains of postnatal day (P) 2 rats, dissociated into single cells, and cultured into poly-D-lysine (PDL) coated T75 tissue culture flasks. Plating medium consisted of Dulbecco's modified Eagle's medium (DMEM, Invitrogen, Carlsbad, Calif.) supplemented with 10% fetal bovine serum (FBS; Invitrogen, Carlsbad, Calif.), […]. Tissue cultures were maintained at 37° C. in a humidified 5% CO2 incubator, and medium was exchanged every 3 days. […]
In general terms: Formazan colour is commonly taken as a measure of viable cells.

Consider `COc1cc(C2C(C(=O)OCc3ccccc3)=C(C)Nc3nnnn32)ccc1O` (centres unmarked) [BHDPC, benzyl 7-(4-hydroxy-3-methoxyphenyl)-5-methyl-4,7-dihydrotetrazolo[1,5-a]pyrimidine-6-carboxylate], for which the “MPP+-induced CNS cells death and neurons death in brain slices” value in test [1] was “prevented MPP^+-induced neuronal death”. In test [1] (listed as BHDPCs), the “MPP+-induced CNS cells death and neurons death in brain slices” value was “attenuated”. Moreover, in test [2], the “level of microtubule-associated protein (MAP2)” value is “increase levels” and the “level of α-tubulin” value is on record as “increase levels”. In addition, the LPS-induced cell death result in test [3] is listed as “reduced LPS-induced cell death”.
